The text below walks through data of US11541152B2, “Medical device with drug-eluting coating on modified device surface” (Lutonix, Inc., priority 2018, dated 2023).

The conditions of data set [1]: BSA added; cited from earlier work.
A short description of data set [2]: stability under ethylene oxide sterilization, heating and aging; reaction with paclitaxel. The settings on record: for reaction with paclitaxel: ethylene oxide sterilization, heating, aging.
The test system of data set [3] is protein (albumin). The settings on record: cited from earlier work.
For data set [4] the following is noted: octanol/water; cited from earlier work.
For data set [5] the following is noted: cited from earlier work.

In the case of `CC(=O)O[C@H]1C(=O)[C@@]2(C)[C@H]([C@H](OC(=O)c3ccccc3)[C@]3(O)C[C@H](OC(=O)[C@H](O)[C@@H](NC(=O)c4ccccc4)c4ccccc4)C(C)=C1C3(C)C)[C@]1(OC(C)=O)CO[C@@H]1C[C@@H]2O` [paclitaxel], in data set [1], the “increase of solubility in PBS with the addition of BSA” value is recorded as “over 20 fold”.

As to `O=C1O[C@H]([C@@H](O)CO)C(O)=C1O` [ascorbic acid], the reaction with paclitaxel result in data set [2] is reported as “reacted with paclitaxel”.

On to `OCCNCCO` [diethanolamine], for which the reaction with paclitaxel result in data set [2] is “reacted with paclitaxel”.

Turning to `O=C(O)c1ccccc1` [benzoic acid], the reaction with paclitaxel entry in data set [2] is “reacted with paclitaxel”. Also, the “stability under ethylene oxide sterilization, heating, and aging process” value in data set [2] (formulated with paclitaxel) was “not stable”.

Take `CO[C@H]1C[C@@H]2CC[C@@H](C)[C@@](O)(O2)C(=O)C(=O)N2CCCC[C@H]2C(=O)O[C@H]([C@H](C)C[C@@H]2CC[C@@H](O)[C@H](OC)C2)CC(=O)[C@H](C)/C=C(\C)[C@@H](O)[C@@H](OC)C(=O)[C@H](C)C[C@H](C)/C=C/C=C/C=C/1C` [rapamycin]: the protein bound in data set [3] is on record as 92%. The “share of protein binding that is to albumin” value in data set [3] (primarily to albumin) is 97%.

Regarding PEG-20 sorbitan monolaurate [Tween 20], in data set [4], the “log P” value is “about 3.0”.

For Sudan Red, in data set [5], the “solubility in aqueous solvent” value is recorded as “insoluble in aqueous solvent”.

`COc1ccc(O)c(C(C)(C)C)c1` [Butylated hydroxyanisole]: the “log P” value in data set [4] is listed as 1.31.

What is called log P is a log measure of how a compound divides between an organic and an aqueous phase.
